# Source: the supplement of paper PMC10307832
# Columns and labels:
# Assay in all cases: relative viability (nuclei count vs DMSO), 5 days (fraction); higher = more cells survive
# RERF-LC-KJ = tested on: RERF-LC-KJ
# In short: (§1)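 Relative viability was taken as the ratio of nuclei in treated wells to nuclei in vehicle wells. Lung cancer cell lines in 1536-well plates received compounds by pin tool one day after seeding, either one drug alone or a fixed anchor-drug dose plus five library-drug doses (not always all listed) in √10 steps. Nuclei were counted on 4× images after 5 days of treatment, and values are medians of duplicate plates.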
# HARA = tested on: HARA
# In short: as §1
# SW 1573 = tested on: SW 1573
# In short: as §1
# 201T = tested on: 201T
# In short: as §1
# HCC-44 = tested on: HCC-44
# In short: as §1
# NCI-H1650 = tested on: NCI-H1650
# In short: as §1
# LOU-NH91 = tested on: LOU-NH91
# In short: as §1
# A-427 = tested on: A-427
# In short: as §1
# NCI-H2023 = tested on: NCI-H2023
# In short: as §1
# HCC-15 = tested on: HCC-15
# In short: as §1
# HCC-366 = tested on: HCC-366
# In short: as §1
# ChaGo-K-1 = tested on: ChaGo-K-1
# In short: as §1
# NCI-H441 = tested on: NCI-H441
# In short: as §1
# NCI-H1993 = tested on: NCI-H1993
# In short: as §1
# NCI-H2126 = tested on: NCI-H2126
# In short: as §1
# COR-L23 = tested on: COR-L23
# In short: as §1
# LCLC-97TM1 = tested on: LCLC-97TM1
# In short: as §1
# NCI-H1734 = tested on: NCI-H1734
# In short: as §1
# LCLC-103H = tested on: LCLC-103H
# In short: as §1
# NCI-H2009 = tested on: NCI-H2009
# In short: as §1
# NCI-H460 = tested on: NCI-H460
# In short: as §1
# NCI-H650 = tested on: NCI-H650
# In short: as §1
# HCC-78 = tested on: HCC-78
# In short: as §1
compound,measurement,setting,value
O=C(O)CCCCC(CCSCc1ccccc1)SCc1ccccc1 (stereo not given) [CPI-613] + CC(=O)c1c(C)c2cnc(Nc3ccc(N4CCNCC4)cn3)nc2n(C2CCCC2)c1=O [Palbociclib] (partner 0.5 µM),relative viability,RERF-LC-KJ; first compound 5 µM,1.07
same,relative viability,RERF-LC-KJ; first compound 15.81 µM,0.952
same,relative viability,RERF-LC-KJ; first compound 50 µM,1.09
same,relative viability,RERF-LC-KJ; first compound 158.11 µM,0.615
same,relative viability,RERF-LC-KJ; first compound 500 µM,0.571
same,relative viability,HARA; first compound 5 µM,0.214
same,relative viability,HARA; first compound 15.81 µM,0.26
same,relative viability,HARA; first compound 50 µM,0.309
same,relative viability,HARA; first compound 158.11 µM,0.198
same,relative viability,HARA; first compound 500 µM,0.105
same,relative viability,SW 1573; first compound 5 µM,0.336
same,relative viability,SW 1573; first compound 15.81 µM,0.579
same,relative viability,SW 1573; first compound 50 µM,0.384
same,relative viability,SW 1573; first compound 158.11 µM,0.0841
same,relative viability,SW 1573; first compound 500 µM,0.056
same,relative viability,201T; first compound 5 µM,0.341
same,relative viability,201T; first compound 15.81 µM,0.34
same,relative viability,201T; first compound 50 µM,0.353
same,relative viability,201T; first compound 158.11 µM,0.185
same,relative viability,201T; first compound 500 µM,0.204
same,relative viability,HCC-44; first compound 5 µM,0.959
same,relative viability,HCC-44; first compound 15.81 µM,0.954
same,relative viability,HCC-44; first compound 50 µM,1.04
same,relative viability,HCC-44; first compound 158.11 µM,0.6
same,relative viability,HCC-44; first compound 500 µM,0.606
same,relative viability,NCI-H1650; first compound 5 µM,0.326
same,relative viability,NCI-H1650; first compound 15.81 µM,0.276
same,relative viability,NCI-H1650; first compound 50 µM,0.317
same,relative viability,NCI-H1650; first compound 158.11 µM,0.0807
same,relative viability,NCI-H1650; first compound 500 µM,0.0173
same,relative viability,LOU-NH91; first compound 5 µM,0.506
same,relative viability,LOU-NH91; first compound 15.81 µM,0.548
same,relative viability,LOU-NH91; first compound 50 µM,0.522
same,relative viability,LOU-NH91; first compound 158.11 µM,0.402
same,relative viability,LOU-NH91; first compound 500 µM,0.435
same,relative viability,A-427; first compound 5 µM,0.519
same,relative viability,A-427; first compound 15.81 µM,0.477
same,relative viability,A-427; first compound 50 µM,0.486
same,relative viability,A-427; first compound 158.11 µM,0.332
same,relative viability,A-427; first compound 500 µM,0.384
same,relative viability,NCI-H2023; first compound 5 µM,0.335
same,relative viability,NCI-H2023; first compound 15.81 µM,0.323
same,relative viability,NCI-H2023; first compound 50 µM,0.35
same,relative viability,NCI-H2023; first compound 158.11 µM,0.0317
same,relative viability,NCI-H2023; first compound 500 µM,0.0063
same,relative viability,HCC-15; first compound 5 µM,0.649
same,relative viability,HCC-15; first compound 15.81 µM,0.694
same,relative viability,HCC-15; first compound 50 µM,0.681
same,relative viability,HCC-15; first compound 158.11 µM,0.332
same,relative viability,HCC-15; first compound 500 µM,0.126
same,relative viability,HCC-366; first compound 5 µM,0.354
same,relative viability,HCC-366; first compound 15.81 µM,0.322
same,relative viability,HCC-366; first compound 50 µM,0.336
same,relative viability,HCC-366; first compound 158.11 µM,0.0258
same,relative viability,HCC-366; first compound 500 µM,0.006
same,relative viability,ChaGo-K-1; first compound 5 µM,0.868
same,relative viability,ChaGo-K-1; first compound 15.81 µM,0.902
same,relative viability,ChaGo-K-1; first compound 50 µM,0.842
same,relative viability,ChaGo-K-1; first compound 158.11 µM,0.339
same,relative viability,ChaGo-K-1; first compound 500 µM,0.419
same,relative viability,NCI-H441; first compound 5 µM,0.222
same,relative viability,NCI-H441; first compound 15.81 µM,0.197
same,relative viability,NCI-H441; first compound 50 µM,0.18
same,relative viability,NCI-H441; first compound 158.11 µM,0.136
same,relative viability,NCI-H441; first compound 500 µM,0.0142
same,relative viability,NCI-H1993; first compound 5 µM,0.611
same,relative viability,NCI-H1993; first compound 15.81 µM,0.581
same,relative viability,NCI-H1993; first compound 50 µM,0.715
same,relative viability,NCI-H1993; first compound 158.11 µM,0.468
same,relative viability,NCI-H1993; first compound 500 µM,0.38
same,relative viability,NCI-H2126; first compound 5 µM,0.334
same,relative viability,NCI-H2126; first compound 15.81 µM,0.363
same,relative viability,NCI-H2126; first compound 50 µM,0.338
same,relative viability,NCI-H2126; first compound 158.11 µM,0.213
same,relative viability,NCI-H2126; first compound 500 µM,0.162
same,relative viability,COR-L23; first compound 5 µM,0.285
same,relative viability,COR-L23; first compound 15.81 µM,0.321
same,relative viability,COR-L23; first compound 50 µM,0.324
same,relative viability,COR-L23; first compound 158.11 µM,0.11
same,relative viability,COR-L23; first compound 500 µM,0.0343
same,relative viability,LCLC-97TM1; first compound 5 µM,0.232
same,relative viability,LCLC-97TM1; first compound 15.81 µM,0.207
same,relative viability,LCLC-97TM1; first compound 50 µM,0.177
same,relative viability,LCLC-97TM1; first compound 158.11 µM,0.124
same,relative viability,LCLC-97TM1; first compound 500 µM,0.0897
same,relative viability,NCI-H1734; first compound 5 µM,0.314
same,relative viability,NCI-H1734; first compound 15.81 µM,0.274
same,relative viability,NCI-H1734; first compound 50 µM,0.335
same,relative viability,NCI-H1734; first compound 158.11 µM,0.199
same,relative viability,NCI-H1734; first compound 500 µM,0.144
same,relative viability,LCLC-103H; first compound 5 µM,0.464
same,relative viability,LCLC-103H; first compound 15.81 µM,0.456
same,relative viability,LCLC-103H; first compound 50 µM,0.455
same,relative viability,LCLC-103H; first compound 158.11 µM,0.343
same,relative viability,LCLC-103H; first compound 500 µM,0.213
same,relative viability,NCI-H2009; first compound 5 µM,0.229
same,relative viability,NCI-H2009; first compound 15.81 µM,0.207
same,relative viability,NCI-H2009; first compound 50 µM,0.221
same,relative viability,NCI-H2009; first compound 158.11 µM,0.0593
same,relative viability,NCI-H2009; first compound 500 µM,0.0128
same,relative viability,NCI-H460; first compound 5 µM,0.197
same,relative viability,NCI-H460; first compound 15.81 µM,0.0984
same,relative viability,NCI-H460; first compound 50 µM,0.0912
same,relative viability,NCI-H460; first compound 158.11 µM,0.0107
same,relative viability,NCI-H460; first compound 500 µM,0.0087
same,relative viability,NCI-H650; first compound 5 µM,0.337
same,relative viability,NCI-H650; first compound 15.81 µM,0.312
same,relative viability,NCI-H650; first compound 50 µM,0.306
same,relative viability,NCI-H650; first compound 158.11 µM,0.269
same,relative viability,NCI-H650; first compound 500 µM,0.262
same,relative viability,HCC-78; first compound 5 µM,0.462
same,relative viability,HCC-78; first compound 15.81 µM,0.527
same,relative viability,HCC-78; first compound 50 µM,0.473
same,relative viability,HCC-78; first compound 158.11 µM,0.447
same,relative viability,HCC-78; first compound 500 µM,0.427
